Laboratory results published in ChEMBL document CHEMBL1201862, “PubChem BioAssay data set” (2004).
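Results reflect a 48-hour exposure of cells in 96-well plates to compound at five concentrations. GI50 marks 50% less growth.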 Activity calls are given as the source filed them. Rule as the data show it: active = GI50 up to about 1.1 µM and inactive = higher.

Legend:
Assay in all cases: inhibition of tumour cell growth, NCI panel, 48 h
TK-10 = test system: TK-10
SF-268 = test system: SF-268
A549 = test system: A549
HOP-92 = test system: HOP-92
ACHN = test system: ACHN
HCT-116 = test system: HCT-116
HCT-15 = test system: HCT-15
MOLT-4 = test system: MOLT-4
NCI-H23 = test system: NCI-H23
HL-60 = test system: HL-60
SK-MEL-28 = test system: SK-MEL-28
SK-OV-3 = test system: SK-OV-3
IGROV-1 = test system: IGROV-1
NCI-H460 = test system: NCI-H460
UO-31 = test system: UO-31
HT-29 = test system: HT-29
OVCAR-8 = test system: OVCAR-8
UACC-62 = test system: UACC-62
EKVX = test system: EKVX

Row | SMILES | GI50 (TK-10) | GI50 (SF-268) | GI50 (A549) | GI50 (HOP-92) | GI50 (ACHN) | GI50 (HCT-116) | GI50 (HCT-15) [µM] | GI50 (MOLT-4) | GI50 (NCI-H23) | GI50 (HL-60) | GI50 (SK-MEL-28) | GI50 (SK-OV-3) | GI50 (IGROV-1) | GI50 (NCI-H460) | GI50 (UO-31) | GI50 (HT-29) | GI50 (OVCAR-8) | GI50 (UACC-62) | GI50 (EKVX)
1 | CN(C(=O)c1ccc(Cl)cc1)C(=S)N1CCN(c2ccccn2)CC1 | > 100 µM (inactive) | > 100 µM (inactive) | > 100 µM (inactive) | 35.6 µM (inactive) | > 100 µM (inactive) | > 100 µM (inactive) | > 100 | > 100 µM (inactive) | > 100 µM (inactive) | > 100 µM (inactive) | > 100 µM (inactive) | > 100 µM (inactive) | > 100 µM (inactive) | > 100 µM (inactive) | > 100 µM (inactive) | > 100 µM (inactive) | > 100 µM (inactive) | > 100 µM (inactive) | 
2 | Cc1c(Cl)ccc2c1NC(=O)C2(O)CC(=O)c1ccc2ccccc2c1 (centres undefined) | > 100 µM (inactive) | 32.1 µM (inactive) | 53.3 µM (inactive) | 44 µM (inactive) | 58.9 µM (inactive) | 48.5 µM (inactive) | 41.1 | 18.6 µM (inactive) | 28.2 µM (inactive) |  | 48.2 µM (inactive) | > 100 µM (inactive) | 37.5 µM (inactive) | 67.1 µM (inactive) | 22.4 µM (inactive) | 39.6 µM (inactive) | 55.2 µM (inactive) | 21.5 µM (inactive) | 84.7 µM (inactive)
3 | CCCCN(CCCC)CC(C(=O)Nc1ccc([N+](=O)[O-])cc1[N+](=O)[O-])/C(C)=N\NC(=O)c1ccncc1 (centres undefined) | > 100 µM (inactive) | > 100 µM (inactive) | > 100 µM (inactive) | 90.6 µM (inactive) | > 100 µM (inactive) |  | > 100 | > 100 µM (inactive) | > 100 µM (inactive) | > 100 µM (inactive) | > 100 µM (inactive) | > 100 µM (inactive) | > 100 µM (inactive) | > 100 µM (inactive) | > 100 µM (inactive) |  | > 100 µM (inactive) | > 100 µM (inactive) | > 100 µM (inactive)
4 | Cn1c(=O)c2/c(n(C)c1=O)=N\C=c1\c(=O)n(C)c(=O)n(C)\c1=N\C=2 | > 100 µM (inactive) | > 100 µM (inactive) | > 100 µM (inactive) | > 100 µM (inactive) | > 100 µM (inactive) | > 100 µM (inactive) | > 100 | > 100 µM (inactive) | > 100 µM (inactive) | > 100 µM (inactive) | > 100 µM (inactive) |  | > 100 µM (inactive) | > 100 µM (inactive) | > 100 µM (inactive) | > 100 µM (inactive) | > 100 µM (inactive) | > 100 µM (inactive) | > 100 µM (inactive)
5 | Cn1c2ccccc2c2cc(-c3ccccc3)c3c(c21)C(=O)c1ccccc1C3=O | 48.3 µM (inactive) | 19.1 µM (inactive) | 20.4 µM (inactive) | 12.3 µM (inactive) |  | 15.8 µM (inactive) |  | 5.04 µM (inactive) | 5.79 µM (inactive) | 9.35 µM (inactive) | 14.7 µM (inactive) | 38.3 µM (inactive) | 21 µM (inactive) |  | 11 µM (inactive) | 31.9 µM (inactive) | 18.2 µM (inactive) | 13.3 µM (inactive) | > 10 µM (inactive)
6 | O=C(CCc1nnc(S)[nH]1)Nc1cc(Cl)c(Cl)cc1Cl | > 100 µM (inactive) | > 100 µM (inactive) | > 100 µM (inactive) | > 100 µM (inactive) | > 100 µM (inactive) | > 100 µM (inactive) | > 100 | > 100 µM (inactive) | > 100 µM (inactive) | > 100 µM (inactive) | > 100 µM (inactive) | > 100 µM (inactive) | > 100 µM (inactive) | > 100 µM (inactive) | > 100 µM (inactive) | > 100 µM (inactive) | > 100 µM (inactive) | > 100 µM (inactive) | 
7 | CN(C)c1ccc(C(=C2C=CC(=[N+](C)C)C=C2)c2ccc(N(C)C)cc2)cc1 [GENTIAN VIOLET] |  | 0.133 µM (active) | 0.0395 µM (active) | 0.196 µM (active) | 0.175 µM (active) |  | 0.334 | 0.144 µM (active) | 0.0594 µM (active) | 0.04 µM (active) | 0.53 µM (active) | 0.224 µM (active) | 0.21 µM (active) | 0.0574 µM (active) | 0.318 µM (active) |  |  | 0.143 µM (active) | 0.368 µM (active)
8 | COc1ccc2[nH]c3c([N+](=O)[O-])ccc(NCCN(C)C)c3/c(=N/CCN(C)C)c2c1 | 3.13 µM (inactive) | 0.962 µM (active) | 1.66 µM (inactive) | 5.08 µM (inactive) |  |  | 1.31 | 0.172 µM (active) | 1.49 µM (inactive) | 1.31 µM (inactive) | 2.26 µM (inactive) | 2.85 µM (inactive) | 1.91 µM (inactive) |  |  | 1.77 µM (inactive) | 0.634 µM (active) | 7.23 µM (inactive) | 2.24 µM (inactive)
9 | CN(C)c1ccc(C(=C(c2ccc(N(C)C)cc2)c2ccc(N(C)C)cc2)c2ccc(N(C)C)cc2)cc1 | 16 µM (inactive) | 21.5 µM (inactive) | 16.3 µM (inactive) |  | 11.5 µM (inactive) | 13.4 µM (inactive) | 14.4 | 14.6 µM (inactive) | 17 µM (inactive) | 5.36 µM (inactive) | 14.3 µM (inactive) | 20.8 µM (inactive) | 17.3 µM (inactive) | 15.8 µM (inactive) | 17.4 µM (inactive) | 13.8 µM (inactive) | 19.6 µM (inactive) | 18.8 µM (inactive) | 18.7 µM (inactive)
10 | CCOP(=O)(OCC)C(C(=O)OC)C(=O)C(=O)Nc1cccc([N+](=O)[O-])c1 (centres undefined) | > 100 µM (inactive) | > 100 µM (inactive) | > 100 µM (inactive) |  | > 100 µM (inactive) | > 100 µM (inactive) | > 100 | > 100 µM (inactive) | > 100 µM (inactive) | > 100 µM (inactive) | > 100 µM (inactive) | > 100 µM (inactive) | > 100 µM (inactive) | > 100 µM (inactive) | > 100 µM (inactive) | > 100 µM (inactive) | > 100 µM (inactive) | > 100 µM (inactive) | > 100 µM (inactive)
11 | Cc1ccc(/C=C/C(=O)c2sc(C(N)=S)nc2C)cc1 | > 100 µM (inactive) | > 100 µM (inactive) | > 100 µM (inactive) | > 100 µM (inactive) | > 100 µM (inactive) |  | > 100 | > 100 µM (inactive) | > 100 µM (inactive) | > 100 µM (inactive) | > 100 µM (inactive) | > 100 µM (inactive) | > 100 µM (inactive) | > 100 µM (inactive) | > 100 µM (inactive) | > 100 µM (inactive) | > 100 µM (inactive) | > 100 µM (inactive) | > 100 µM (inactive)
12 | C=CC(=O)N1C/C(=C\c2ccc(Cl)c(Cl)c2)C(=O)/C(=C/c2ccc(Cl)c(Cl)c2)C1 | 0.501 µM (active) | 0.104 µM (active) |  | 1.19 µM (inactive) | 0.169 µM (active) | 0.0612 µM (active) | 0.0716 | 0.103 µM (active) | 0.2 µM (active) |  | 0.458 µM (active) | 0.378 µM (active) | 0.124 µM (active) | 0.152 µM (active) | 0.207 µM (active) | 0.0673 µM (active) | 0.115 µM (active) | 0.298 µM (active) | 
13 | Cc1ccc(C(c2c(O)c3ccccc3n(-c3ccccc3)c2=O)c2c(O)c3ccccc3n(-c3ccccc3)c2=O)cc1 | > 100 µM (inactive) | 82.2 µM (inactive) | > 100 µM (inactive) | > 100 µM (inactive) | 89.3 µM (inactive) | > 100 µM (inactive) | > 100 | 24.2 µM (inactive) | > 100 µM (inactive) |  | > 100 µM (inactive) |  |  |  | > 100 µM (inactive) |  |  |  | 35.3 µM (inactive)
14 | C[n+]1c2n(c3nc(N)[nH]c(=O)c31)C1OC(C2)C(O)C1O (centres undefined) | > 100 µM (inactive) | > 100 µM (inactive) | > 100 µM (inactive) | > 100 µM (inactive) | > 100 µM (inactive) | > 100 µM (inactive) |  | > 100 µM (inactive) | > 100 µM (inactive) | > 100 µM (inactive) | > 100 µM (inactive) | > 100 µM (inactive) | > 100 µM (inactive) |  | > 100 µM (inactive) | > 100 µM (inactive) | > 100 µM (inactive) | > 100 µM (inactive) | > 100 µM (inactive)
15 | CC(C)(C)C(C#N)(C#N)c1ccc(C(C#N)(C#N)C(C)(C)C)nn1 | > 100 µM (inactive) | 86.7 µM (inactive) | > 100 µM (inactive) | 72.4 µM (inactive) | 82 µM (inactive) |  | > 100 | > 100 µM (inactive) | > 100 µM (inactive) | > 100 µM (inactive) | > 100 µM (inactive) | 41.3 µM (inactive) | > 100 µM (inactive) | > 100 µM (inactive) | > 100 µM (inactive) | > 100 µM (inactive) | > 100 µM (inactive) | > 100 µM (inactive) | > 100 µM (inactive)
16 | COc1ccc(CNc2nc3c(NC(C)=O)cc(C(F)(F)F)cc3nc2-c2ccccc2)cc1OC | 32.1 µM (inactive) | 5.68 µM (inactive) | 47.9 µM (inactive) |  |  | 48.4 µM (inactive) | > 100 | > 100 µM (inactive) | 59 µM (inactive) | > 100 µM (inactive) | 19 µM (inactive) | 40.7 µM (inactive) | > 100 µM (inactive) | > 100 µM (inactive) | 7.45 µM (inactive) | > 100 µM (inactive) | 56.8 µM (inactive) | 45.3 µM (inactive) | 35.6 µM (inactive)
